Assay results as given in the supplement of paper PMC10307832.

Tests used:
Assay in all cases: relative viability (nuclei count vs DMSO), 5 days (fraction); higher = more cells survive
[1] = compound: O=C(O)C(Cc1ccccc1[N+](=O)[O-])=NNc1nc(-c2ccc(Cl)c(Cl)c2)cs1 (mixture of isomers) [4EGI-1] + Cc1cc(Nc2cc(N3CCN(C)CC3)nc(Sc3ccc(NC(=O)C4CC4)cc3)n2)n[nH]1 [Tozasertib] (partner 0.1 µM)
In short: (§1)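 Relative viability equals treated-well nuclei counts divided by vehicle-well nuclei counts. Counts came from 4× images of lung cancer cell lines grown in 1536-well plates for 5 days after pin-tool dosing on the day after seeding. Dosing used one drug alone or a fixed anchor-drug dose plus five library-drug doses (not always all listed) in √10 steps, and values are medians of duplicate plates.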

[2] = compound: O=C(O)C(Cc1ccccc1[N+](=O)[O-])=NNc1nc(-c2ccc(Cl)c(Cl)c2)cs1 (mixture of isomers) [4EGI-1] + N=C(N)NC(=N)NCCc1ccccc1 [Phenformin] (partner 250 µM)
In short: as §1

[3] = compound: O=C(O)C(Cc1ccccc1[N+](=O)[O-])=NNc1nc(-c2ccc(Cl)c(Cl)c2)cs1 (mixture of isomers) [4EGI-1] + CC(=O)c1c(C)c2cnc(Nc3ccc(N4CCNCC4)cn3)nc2n(C2CCCC2)c1=O [Palbociclib] (partner 0.5 µM)
In short: as §1

[4] = compound: O=C(O)C(Cc1ccccc1[N+](=O)[O-])=NNc1nc(-c2ccc(Cl)c(Cl)c2)cs1 (mixture of isomers) [4EGI-1] + Cc1nc(NC(=O)N2CCC[C@H]2C(N)=O)sc1-c1ccnc(C(C)(C)C(F)(F)F)c1 [Alpelisib] (partner 2 µM)
In short: as §1

Cell Line	relative viability ([1]; first compound 0.5 µM)	relative viability ([1]; first compound 1.581 µM)	relative viability ([1]; first compound 5 µM)	relative viability ([1]; first compound 15.81 µM)	relative viability ([1]; first compound 50 µM)	relative viability ([2]; first compound 0.5 µM)	relative viability ([2]; first compound 1.581 µM)	relative viability ([2]; first compound 5 µM)	relative viability ([2]; first compound 15.81 µM)	relative viability ([2]; first compound 50 µM)	relative viability ([3]; first compound 0.5 µM)	relative viability ([3]; first compound 1.581 µM)	relative viability ([3]; first compound 5 µM)	relative viability ([3]; first compound 15.81 µM)	relative viability ([3]; first compound 50 µM)	relative viability ([4]; first compound 0.5 µM)	relative viability ([4]; first compound 5 µM)	relative viability ([4]; first compound 15.81 µM)	relative viability ([4]; first compound 50 µM)	relative viability ([4]; first compound 1.581 µM)
LU99A	0.258	0.227	0.298	0.28	0.208	1.03	0.595	0.924	0.885	0.391	0.41	0.281	0.396	0.498	0.297	0.613	0.538	0.539	0.171	
NCI-H2347	0.589		0.557	0.46	0.467	0.614		0.379	0.363	0.344	0.427	0.405	0.447	0.413	0.34	1.2	1.04	0.965	0.978	0.953
EKVX	0.434	0.359	0.433	0.368	0.371	0.223	0.213	0.234	0.189	0.215	0.456		0.365	0.23	0.307	1.12	0.971	0.648	0.826	0.85
H3255	0.789	0.43	0.726	0.571	0.551	0.424	0.347	0.385	0.308	0.324	0.306	0.316	0.305	0.315	0.302	0.861	0.756	0.473	0.561	0.641
NCI-H1793	0.318	0.364	0.391	0.247	0.2	0.375	0.47	0.418	0.367	0.297	0.339	0.333	0.329	0.235	0.205	0.868	0.679	0.668	0.577	0.883
ABC-1	0.201	0.15	0.21	0.206	0.172	0.239	0.234	0.215	0.209	0.171	0.73		0.738	0.527	0.249	1.07	1.02	0.74	0.405	1.03
NCI-H647	0.262		0.35	0.199	0.133	0.562		0.819	0.419	0.141	0.53	0.302	0.455	0.303	0.0557	1.16	1.41	0.647	0.108	1.17
NCI-H727	0.595	0.765	0.502	0.499	0.585	0.648	0.518	0.511	0.572	0.332	0.689	0.617	0.641	0.604	0.62	0.676	0.625	0.478	0.366	0.54
